Assay: differential scanning calorimetry (DSC), heat flow as a function of temperature
Type: physicochemical
Protocol: This is also an exothermic event. Upon heating, the cryoablation gel melts at about −10° C.
An exothermic event begins as the sample is cooled to about −18° C.; and the phase changing event is more than 10° C. wide. This process is more than 4×more exothermic than the crystallization of cryoablation gel, showing that the water crystallization process is much more chaotic with high entropy and takes a while to reach an ordered state. On the contrary, the cryoablation gel is a more highly ordered substance and the crystallization event produces less energy due to the relatively lower entropy.

O [water]
temperature of phase change (exothermic event) on cooling (cooling): about −18 °C
width of phase changing event (cooling): more than 10 °C
exothermicity of crystallization relative to cryoablation gel (water versus cryoablation gel): more than 4 ×

Reference: patent publication US20240293164A1, “METHODS AND COMPOSITIONS OF CRYOABLATION WITH DRUG DELIVERY” (Theromics, Inc., priority 2023, published 2024)
